The source of these data is patent US4289762A, “10-(1,2-Propadienyl) steroids as irreversible aromatase inhibitors” (Merrell Dow Pharmaceuticals Inc., priority 1980, dated 1981).

Several values for one entry are separate records, joined by “and”; a condition that tells them apart may be missing. Equal entries are not always repeated. Entries after “also recorded” stand apart in the source; their conditions may differ. Where two headings read alike, the source gives them in different places.

Holding throughout (experiment): biochemical
Assay [1] deals with T1, aromatase (Homo sapiens, UniProt P11511).
T1 construct: microsomal fraction isolated from human placenta; from tissue; host or cells: human placenta, microsomal fraction
T1 sequence (P11511 1-503): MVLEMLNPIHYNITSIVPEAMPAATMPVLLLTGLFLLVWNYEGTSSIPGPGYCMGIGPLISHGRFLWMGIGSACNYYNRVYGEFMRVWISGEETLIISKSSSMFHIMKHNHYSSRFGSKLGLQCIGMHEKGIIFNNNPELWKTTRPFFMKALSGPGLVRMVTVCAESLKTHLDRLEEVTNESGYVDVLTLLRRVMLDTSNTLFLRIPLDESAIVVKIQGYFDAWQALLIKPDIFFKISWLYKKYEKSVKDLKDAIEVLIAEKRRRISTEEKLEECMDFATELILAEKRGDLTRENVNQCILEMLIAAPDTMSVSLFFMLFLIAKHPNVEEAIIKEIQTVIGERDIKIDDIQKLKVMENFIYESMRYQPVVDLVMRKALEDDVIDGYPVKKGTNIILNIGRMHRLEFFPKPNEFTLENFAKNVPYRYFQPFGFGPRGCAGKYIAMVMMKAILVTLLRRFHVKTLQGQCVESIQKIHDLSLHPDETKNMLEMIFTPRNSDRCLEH
In kind it is human (placenta microsomal fraction). Conditions: for Ki: time-dependent assay, Table 2, read-out: Apparent Ki. As for the experimental part: (§1) In the time-dependent assay, an amount of the enzyme inhibitor in 100 ul of the assay buffer described above which will provide assay concentrations which are approximately one and ten times the IC50 values are added to 35 ml centrifuge tubes containing 600 ul of the NADPH generating system described above. […] These preparations are mixed using a vortex mixer and incubated for 0, 10, 20 or 40 minutes at 25° C. […] Following vortexing, the enzyme incubation is continued for 10 minutes before being terminated by the addition of chloroform. The amount of radioactivity in the aqueous fraction is determined by scintillation procedures. […] Therefore, the percent enzyme inhibition is expressed as a percentage of the 100 percent enzyme activity value.
Compounds which show time-dependent inhibition are then assayed to establish the inhibition constant, Ki, which is the apparent dissociation constant for the enzyme-inhibitor complex. This determination requires measurements at initial velocities of enzyme reaction. […] The enzyme half-life (t1/2) at these different inhibitor concentrations ([In]) is used to determine the Ki by the linear regression equation of the t1/2 vs. 1/[In]. The Ki is equivalent to the inhibitor concentration when t1/2 is equal to zero.

For assay [2], the target named is T1, aromatase. Type of assay: human (placenta microsomal fraction). Conditions: for inhibition at 0.25 µM: inhibitor 0.25 uM; for inhibition at 0.25 µM / inhibition at 2.5 µM / inhibition at 0.1 µM / inhibition at 1 µM: read-out: Percent Inhibition; for inhibition at 2.5 µM: inhibitor 2.5 uM; for inhibition at 0.1 µM: inhibitor 0.1 uM; for inhibition at 1 µM: inhibitor 1.0 uM. As for the experimental part: In this assay, the inhibitor is preincubated with the enzyme prior to assaying for enzyme activity in the presence of high substrate levels.
as §1

In assay [3] the target is T1, aromatase. Type of assay: biochemical, human (placenta microsomal fraction). As for the experimental part: Assay buffer contains 100 mM KCl, 10 mM KH2 PO4, 10 mM dithiothreitol and 1 mM EDTA at pH 8.0. […] These preparations are mixed using a vortex mixer and incubated for 30 minutes at 37° C. with a 95% O2 :5% CO2 gas phase in a Dubinoff shaking incubator.
The enzymatic reaction is terminated by the addition of 10 ml of CHCl3. After vortexing for 20 sec., aqueous/organic emulsions are dispersed and phase separation achieved following centrifugation at 600×g for 10 min. Duplicate 500 ul samples of the upper aqueous phase of each incubation sample are added to 10×75 mm culture tubes. To these tubes, 500 ul of cold 0.25% dextran-coated charcoal suspension is added, vortexed, incubated for 15 min. at 4° C., then centrifuged at 2600×g in a refrigerated centrifuge (4° C.). The supernatant fraction is decanted into a 20 ml scintillation vial and 15 ml of aqueous scintillation cocktail is added. The radioactivity of ^3 H2 O resulting from liberated 1 and 2 tritium atoms during the enzymatic reaction is determined by counting for 10 min. in a liquid scintillation counter. This assay procedure is adapted from the procedures of Reed et al, J. Biol. Chem., 251, 1625 (1976), and Thompson et al, J. Biol. Chem., 249, 5364 and 5374 (1974).

For `C[C@]12C=CC(=O)C=C1CC[C@@H]1[C@@H]2CC[C@]2(C)OC(=O)CC[C@@H]12` [1-dehydrotestololactone, 1,2,3,4,4a,4b,7,9,10,10a-Decahydra-2-hydroxy-2,4b-dimethyl-7oxo-l-phenanthrene-propionic acid O-lactone], the Ki in assay [1] turned out to be 7.9 µM. Also, the inhibition at 0.25 µM in assay [2] (preincubation 0 minutes) was determined as 0%; in assay [2] (preincubation 20 minutes), 3.6%; in assay [2] (preincubation 40 minutes) it was 36.1%. Also, the inhibition at 2.5 µM in assay [2] (preincubation 0 minutes) was 24.7%; in assay [2] (preincubation 20 minutes), 82.7%; in assay [2] (preincubation 40 minutes), 96.9%. The half-maximal inhibitory concentration (IC50) in assay [3] was determined as 2500 nM.

Take `C=C=C[C@]12CCC(=O)C=C1CC[C@@H]1[C@@H]2CC[C@]2(C)C(=O)CC[C@@H]12` [10-(1,2-propadienyl)estr-4-ene-3,17-dione]: in assay [1], the “Affinity for the enzyme site relative to natural substrate testosterone (times greater)” value is “three times greater”, the “Binding to the enzyme” value is “irreversibly bound to the enzyme”, the “Factor by which enzyme affinity exceeds that of 1-dehydrotestololactone” value is 58.1 and the “Factor by which enzyme affinity exceeds that of aminoglutethimide” value is on record as 1,491.2. Moreover, in assay [1], the “Factor by which enzyme affinity exceeds that of androsta-1,4,6-triene-3,17-dione” value was found to be 8.1. In assay [2], the “Activity compared with known therapeutic agents / known aromatase inhibitors” value is recorded as “superior activity to known therapeutic agents; also recorded: superior to known aromatase inhibitors” and the “Time-dependent inhibition of aromatase” value is reported as “significant time-dependent inhibition of aromatase”. Further, in assay [2] (1 µM), the “Percent Inhibition” value was 50.2 and 69.2 and 84.0. For the same compound, the “Enzyme affinity compared with other known inhibitors” value in assay [3] is given as “greater enzyme affinity than other known inhibitors”.

Regarding `C[C@]12C=CC(=O)C=C1C=C[C@@H]1[C@@H]2CC[C@]2(C)C(=O)CC[C@@H]12` [Androsta-1,4,6-triene-3,17-dione], in assay [1], the Ki worked out at 0.11 µM. Further, the inhibition at 0.1 µM in assay [2] (preincubation 0 minutes) is 20.5%; in assay [2] (preincubation 20 minutes) it was 45.5%; in assay [2] (preincubation 40 minutes), 54.8%. In addition, the inhibition at 1 µM in assay [2] (preincubation 0 minutes) is 88.8%; in assay [2] (preincubation 20 minutes), 92.8%; in assay [2] (preincubation 40 minutes), 95.2%. The same compound registered an IC50 in assay [3] of 100 nM.

As a reminder, the inhibition is the drop in the measured response relative to a control, in per cent. Usually IC50 stands for the concentration that inhibits the measured activity by half. A high value points to a need for much substance.
